The source of these data is patent publication US20250171438A1 (Agios Pharmaceuticals, Inc., priority 2022, published 2025).

One test addresses T1, human PAH with the R408W mutation (Homo sapiens, UniProt P00439, R408W).
T1 construct: expressed in transfected cells
T1 sequence (P00439 1-452 R408W): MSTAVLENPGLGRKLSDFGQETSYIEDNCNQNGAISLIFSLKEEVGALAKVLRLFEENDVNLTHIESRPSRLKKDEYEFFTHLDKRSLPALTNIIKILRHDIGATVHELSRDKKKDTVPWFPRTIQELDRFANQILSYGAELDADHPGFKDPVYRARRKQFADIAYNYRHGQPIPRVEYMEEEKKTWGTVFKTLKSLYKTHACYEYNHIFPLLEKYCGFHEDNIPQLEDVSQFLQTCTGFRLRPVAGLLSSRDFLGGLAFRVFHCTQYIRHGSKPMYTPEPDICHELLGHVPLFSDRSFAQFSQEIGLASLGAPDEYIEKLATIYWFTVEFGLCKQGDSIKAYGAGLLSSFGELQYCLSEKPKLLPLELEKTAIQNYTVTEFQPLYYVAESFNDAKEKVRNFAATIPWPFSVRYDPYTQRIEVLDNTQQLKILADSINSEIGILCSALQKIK
As to the kind of experiment: Cell Based Phenylalanine Flux Assay. Particulars: A375 cells expressing human R408W PAH; 24 hrs compound incubation; 13C-Tyrosine by LC-MS; average where tested multiple times; read-out: AC50.
Description: Compounds were resuspended in DMSO, and 2-fold serial dilutions were performed to generate a 10-point dose curve. Compounds were added to plated cells in a total volume of 100 pal, and a final DMSO concentration of 0.5%. Each compound was tested in duplicate. Following compound addition, cells were placed in a 5% CO2, 37° C. tissue culture incubator for 24 hrs. After the incubation period, 20 μM sepiapterin and 800 μM 13C9,15N-Phenylalanine were added. After 4 hours, cell media was removed. An aliquot of 10 μl of cell media was combined with 200 μl of extraction buffer (80% acetonitrile/20% H2O) for each well. Determination of ^13C-Tyrosine concentration was assessed by liquid chromatography mass spectrometry.
Where a compound was tested multiple times, the average value of the tests is reported.
For orientation: AC50 means the concentration at which the activity in the assay is half-maximal. Consider “(R)-(4-(benzo[d]thiazol-2-yl)-6,7-dihydro-1H-imidazo[4,5-c]pyridin-5(4H)-yl)(2-(1-methyl-3-(trifluoromethyl)-1H-pyrazol-4-yl)thiazol-5-yl)methanone [Example 1390]”, for which the AC50 fell in the range of 1000 to 5000 nM.

Take `N#Cc1ncoc1C(=O)N1CCc2[nH]cnc2[C@H]1c1nc2c(F)cccc2s1` [Example 1661, (S)-5-(4-(4-fluorobenzo[d]thiazol-2-yl)-4,5,6,7-tetrahydro-1H-imidazo[4,5-c]pyridine-5-carbonyl)oxazole-4-carbonitrile]: the half-maximal activity concentration (AC50) is 500 to 1000 nM.

Regarding `O=C(c1ocnc1-c1ccccn1)N1CCc2[nH]cnc2[C@@H]1c1nc2ccccc2s1` [Example 1449, (R)-(4-(benzo[d]thiazol-2-yl)-6,7-dihydro-1H-imidazo[4,5-c]pyridin-5(4H)-yl)(4-(pyridin-2-yl)oxazol-5-yl)methanone], the AC50 was greater than 5000 nM.

`O=C(c1nc2c(F)cccc2s1)N1CCc2[nH]cnc2[C@@H]1c1nc2ccccc2s1` [Example 1091, (R)-(4-(benzo[d]thiazol-2-yl)-6,7-dihydro-1H-imidazo[4,5-c]pyridin-5(4H)-yl)(4-fluorobenzo[d]thiazol-2-yl)methanone]: the concentration at half-maximal activity (AC50) is greater than 5000 nM.

Turning to `CC(C)(CO)c1nc(C(F)F)c(C(=O)N2CCc3[nH]cnc3[C@H]2c2nc3c(F)cccc3s2)o1` [Example 2071], the concentration at half-maximal activity (AC50) is less than 500 nM.

With `O=C(c1nncs1)N1CCc2[nH]cnc2[C@H]1c1nc2cccc(F)c2s1` [Example 1266, (S)-(4-(7-fluorobenzo[d]thiazol-2-yl)-6,7-dihydro-1H-imidazo[4,5-c]pyridin-5(4H)-yl)(1,3,4-thiadiazol-2-yl)methanone], the AC50 was less than 500 nM.

`Cc1ccc2c(C(=O)N3CCc4[nH]cnc4[C@@H]3c3nc4c(C)cccc4s3)cnn2c1` [Example 1296, (R)-(4-(4-methylbenzo[d]thiazol-2-yl)-6,7-dihydro-1H-imidazo[4,5-c]pyridin-5(4H)-yl)(6-methylpyrazolo[1,5-a]pyridin-3-yl)methanone]: the AC50 is 1000 to 5000 nM.

With `O=C(c1cncs1)N1CCc2[nH]cnc2[C@H]1c1nc2c(F)cccc2s1` [Example 1217, (S)-(4-(4-fluorobenzo[d]thiazol-2-yl)-6,7-dihydro-1H-imidazo[4,5-c]pyridin-5(4H)-yl)(thiazol-5-yl)methanone], the AC50 is 500 to 1000 nM.

As to `Cc1ncoc1C(=O)N1CCc2[nH]cnc2[C@H]1c1nc2ccccc2s1` [Example 1161], the AC50 is less than 500 nM.

Take `O=C(CCC1CC1)N1CCc2[nH]cnc2[C@@H]1c1nc2ccc(Br)cc2[nH]1` [Example 934, (R)-1-(4-(6-bromo-1H-benzo[d]imidazol-2-yl)-6,7-dihydro-1H-imidazo[4,5-c]pyridin-5(4H)-yl)-3-cyclopropylpropan-1-one]: the AC50 fell in the range of 1000 to 5000 nM.

Turning to `Cc1nc(C2(O)CCC2)oc1C(=O)N1CCc2[nH]cnc2[C@@H]1c1nc2c(F)cccc2s1` [Example 1914, (R)-(4-(4-fluorobenzo[d]thiazol-2-yl)-6,7-dihydro-1H-imidazo[4,5-c]pyridin-5(4H)-yl)(2-(1-hydroxycyclobutyl)-4-methyloxazol-5-yl)methanone], the AC50 is 1000 to 5000 nM.

For the molecule `Cc1ccc(-c2nnc(C(=O)N3CCc4[nH]cnc4[C@@H]3c3nc4ccccc4s3)o2)nc1` [Example 1879, (R)-(4-(benzo[d]thiazol-2-yl)-6,7-dihydro-1H-imidazo[4,5-c]pyridin-5(4H)-yl)(5-(5-methylpyridin-2-yl)-1,3,4-oxadiazol-2-yl)methanone], the concentration at half-maximal activity (AC50) lay within 1000 to 5000 nM.

As to `O=C(c1cnn2ccccc12)N1CCc2[nH]cnc2[C@H]1c1nc2ccccc2s1` [Example 1009], the AC50 is less than 500 nM.

Consider `O=C(c1scnc1Cl)N1CCc2[nH]cnc2[C@@H]1c1nc2c(F)cccc2s1` [Example 1639, (R)-(4-chlorothiazol-5-yl)(4-(4-fluorobenzo[d]thiazol-2-yl)-6,7-dihydro-1H-imidazo[4,5-c]pyridin-5(4H)-yl)methanone], for which the half-maximal activity concentration (AC50) fell in the range of 1000 to 5000 nM.

As for `CN(C)CCc1nc(C(F)(F)F)c(C(=O)N2CCc3[nH]cnc3[C@H]2c2nc3c(F)cccc3s2)o1` [Example 1675], the AC50 is less than 500 nM.

Consider `O=C(c1cnn2ccccc12)N1CCc2[nH]cnc2[C@H]1c1nc2ccc(Br)cc2[nH]1` [Example 940, (S)-(4-(6-bromo-1H-benzo[d]imidazol-2-yl)-6,7-dihydro-1H-imidazo[4,5-c]pyridin-5(4H)-yl)(pyrazolo[1,5-a]pyridin-3-yl)methanone], for which the AC50 is 500 to 1000 nM.

Regarding `O=C(c1oc(-c2ccccn2)nc1C(F)F)N1CCc2[nH]cnc2[C@H]1c1nc2ccccc2s1` [Example 1795], the half-maximal activity concentration (AC50) is less than 500 nM.

In the case of `Cc1ncoc1C(=O)N1C[C@H](C)c2[nH]cnc2[C@H]1c1nc2ccccc2s1` [Example 1546, ((4S,7S)-4-(benzo[d]thiazol-2-yl)-7-methyl-1,4,6,7-tetrahydro-5H-imidazo[4,5-c]pyridin-5-yl)(4-methyloxazol-5-yl)methanone], the half-maximal activity concentration (AC50) lay within 500 to 1000 nM.

As to `CC(C)(O)c1nc(Cl)c(C(=O)N2CCc3[nH]cnc3[C@@H]2c2nc3c(F)cccc3s2)s1` [Example 2088, (R)-(4-chloro-2-(2-hydroxypropan-2-yl)thiazol-5-yl)(4-(4-fluorobenzo[d]thiazol-2-yl)-6,7-dihydro-1H-imidazo[4,5-c]pyridin-5(4H)-yl)methanone], the half-maximal activity concentration (AC50) fell in the range of 1000 to 5000 nM.

As to `O=C(c1oc(-c2ccccn2)nc1C(F)F)N1CCc2[nH]cnc2[C@@H]1c1nc2ccccc2s1` [Example 1796, (R)-(4-(benzo[d]thiazol-2-yl)-6,7-dihydro-1H-imidazo[4,5-c]pyridin-5(4H)-yl)(4-(difluoromethyl)-2-(pyridin-2-yl)oxazol-5-yl)methanone], the AC50 was less than 500 nM.

As for `O=C(c1ccccc1)N1CCc2[nH]cnc2[C@H]1c1nc2ccccc2[nH]1` [Example 928, (S)-(4-(1H-benzo[d]imidazol-2-yl)-1,4,6,7-tetrahydro-5H-imidazo[4,5-c]pyridin-5-yl)(phenyl)methanone], the AC50 lay in the range of 500 to 1000 nM.

As to `Cc1nn2ccccc2c1C(=O)N1CCc2[nH]cnc2[C@H]1c1nc2ccccc2s1` [Example 1165], the concentration at half-maximal activity (AC50) was less than 500 nM.

On to `O=C(CCC1CC1)N1CCc2[nH]cnc2[C@H]1c1nc2cc(F)ccc2s1` [Example 1075, (S)-3-cyclopropyl-1-(4-(5-fluorobenzo[d]thiazol-2-yl)-6,7-dihydro-1H-imidazo[4,5-c]pyridin-5(4H)-yl)propan-1-one], for which the AC50 lay in the range of 500 to 1000 nM.

Consider `CN(C)CCn1cc(C(=O)N2CCc3[nH]cnc3[C@@H]2c2nc3c(F)cccc3s2)c(C(F)(F)F)n1` [Example 1642, (R)-(1-(2-(dimethylamino)ethyl)-3-(trifluoromethyl)-1H-pyrazol-4-yl)(4-(4-fluorobenzo[d]thiazol-2-yl)-6,7-dihydro-1H-imidazo[4,5-c]pyridin-5(4H)-yl)methanone], for which the AC50 lay in the range of 500 to 1000 nM.

For `O=C(c1ccnn1-c1ccccc1)N1CCc2[nH]cnc2[C@@H]1c1nc2c(F)cccc2s1` [Example 1606, (R)-(4-(4-fluorobenzo[d]thiazol-2-yl)-6,7-dihydro-1H-imidazo[4,5-c]pyridin-5(4H)-yl)(1-phenyl-1H-pyrazol-5-yl)methanone], the AC50 was 1000 to 5000 nM.

Regarding `O=C(c1nnc(-c2ccc(F)cc2)o1)N1CCc2[nH]cnc2[C@@H]1c1nc2ccccc2s1` [Example 1370, (R)-(4-(benzo[d]thiazol-2-yl)-6,7-dihydro-1H-imidazo[4,5-c]pyridin-5(4H)-yl)(5-(4-fluorophenyl)-1,3,4-oxadiazol-2-yl)methanone], the concentration at half-maximal activity (AC50) lay in the range of 1000 to 5000 nM.

Turning to `Cn1cc(-c2ccc3c(C(=O)N4CCc5[nH]cnc5[C@H]4c4nc5ccccc5s4)cnn3c2)cn1` [Example 1213], the AC50 is less than 500 nM.

In the case of `Cc1nnc(C(=O)N2CCc3[nH]cnc3[C@H]2c2nc3c(F)cccc3s2)s1` [Example 1252, (S)-(4-(4-fluorobenzo[d]thiazol-2-yl)-6,7-dihydro-1H-imidazo[4,5-c]pyridin-5(4H)-yl)(5-methyl-1,3,4-thiadiazol-2-yl)methanone], the AC50 was 1000 to 5000 nM.

Still in this test, the particulars now being: A375 cells expressing human R408W PAH; 24 hrs with compound; 13C-Tyrosine by LC-MS; average where tested multiple times; read-out: AC50.
As for `O=C(CCc1ccncc1)N1CCc2[nH]cnc2C1c1nc2ccccc2[nH]1` (stereo not shown), the AC50 is greater than 5000 nM.

Take `Cc1nnc(C(=O)N2CCc3[nH]cnc3C2c2nc3ccccc3[nH]2)o1` (stereo not shown): the AC50 lay in the range of 1000 to 5000 nM.

In the case of `O=C(CCc1ccccc1)N1CCc2[nH]cnc2C1c1nc2ccccc2[nH]1` (stereo not shown), the AC50 lay in the range of 1000 to 5000 nM.

`O=C(c1nnc(CCNC2CC2)o1)N1CCc2[nH]cnc2C1c1nc2ccccc2s1` (stereo not shown): the half-maximal activity concentration (AC50) was greater than 5000 nM.

As to `O=C(Cc1nc(C(F)(F)F)cs1)N1CCc2[nH]cnc2C1c1nc2c(F)cccc2s1` (stereo not shown), the half-maximal activity concentration (AC50) was greater than 5000 nM.

With `O=C(CCc1ccc(F)cc1)N1CCc2[nH]cnc2C1c1nc2ccccc2[nH]1` (stereo not shown), the concentration at half-maximal activity (AC50) was greater than 5000 nM.

For `O=C(Cc1cscn1)N1CCc2[nH]cnc2C1c1nc2ccccc2s1` (stereo not shown), the AC50 was greater than 5000 nM.

Regarding `CC(=O)N1CCc2[nH]cnc2C1c1nc2ccccc2s1` (stereo not shown), the concentration at half-maximal activity (AC50) is greater than 5000 nM.

`O=C(c1cnn2cc(F)ccc12)N1CCc2[nH]cnc2C1c1nc2ccc(F)cc2s1` (stereo not shown): the AC50 was greater than 5000 nM.

As for `O=C(Cc1nccs1)N1CCc2[nH]cnc2C1c1nc2ccccc2[nH]1` (stereo not shown), the AC50 was in the range of 1000 to 5000 nM.

`COc1ccc2c(C(=O)N3CCc4[nH]cnc4C3c3nc4ccccc4s3)cnn2c1` (stereo not shown): the AC50 is 1000 to 5000 nM.

For `O=C(c1nnc(CCN2CCOCC2)o1)N1CCc2[nH]cnc2C1c1nc2ccccc2s1` (stereo not shown), the AC50 is greater than 5000 nM.
